Consider one substance from US7301020B2, “Macrolide analogs and methods for identifying same” (priority 2003, dated 2007).

Entries after “also recorded” stand apart in the source; their conditions may differ.

In one series the target is T1, G-actin (Oryctolagus cuniculus, UniProt P68135).
T1 construct: F-actin is purified from rabbit skeletal muscle using a standard protocol; from tissue; host or cells: rabbit skeletal muscle
The experiment in a line: Prodan-actin polymerization assay. The following applies: stoichiometric binding conditions. Type of series: biochemical, rabbit. Here is the method:
FIG. 5: Time course for G-actin polymerization. Prodan-labeled G-actin is mixed to a final concentration of 5 μM with a pre-formed complex of G-actin-KBC at the following concentrations: a: 0 nM; b: 1 nM; c: 5 nM; d: 10 nM; e: 20 nM; f: 50 nM; g: 250 nM) and the polymerization reaction initiated by the addition of KCl and MgCl2 to 0.1 M and 2 mM respectively at 20°. Excitation at 385 nm and Emission at 465 nm.
Prodan-Actin Polymerization assay The fluorescence emission spectrum of a 5 μM solution of Prodan-labeled G-actin is recorded in G-buffer. Polymerization is initiated by adding KCl and MgCl2 to 100 mM and 2 mM respectively and the time course of the reaction is monitored continuously over a 60-minute period time by recording the emission intensity at 465 nm. In other experiments the progress of actin polymerization is determined by recording the Prodan-actin emission spectrum at defined times during the reaction.
The G-actin-KabC complex inhibits actin polymerization by capping the (+)-end of the filament. […] Adding KCl and MgCl2 to 100 mM and 2 mM respectively polymerizes this G-actin mixture and the progress of the reaction is monitored by the increase in Prodan-actin fluorescence at 465 nm (FIG. 5; Marriott et al, 1988). […]

A further series relates to NBT-II cells. The series is described as follows: Effect of macrolides on NBT-II cells (live cell microscopy). In kind it is cell-based, rat. Here is the method: FIG. 7: Effect of KabC on NBT-II cells. NBT-II cells are imaged after 16 hours of drug treatment. KabC concentrations: (A), Control; (B), 10 nM; (C), 100 nM and (D), 1000 nM.
Cell Culture: Rat bladder NBT-II carcinoma cells and mouse NIH 3T3 fibroblast cells are maintained and treated with external drugs as described in Choidas et al (1998).
Live cell microscopy: A multi-model microscope workstation was used to image phase contrast and fluorescence images of living cells (Choidas et al, 1998). Cells are maintained at 37° in a Hepes based culture medium in a Bioptechs cell perfusion chamber (Choidas et al, 1998).

A further series deals with Prodan-G-actin (Oryctolagus cuniculus, UniProt P68135). The experiment in a line: Competition-binding assay with GS1 and CapG on Prodan-G-actin. Set-up: F-actin is purified from rabbit skeletal muscle using a standard protocol; from tissue; host or cells: actin from rabbit skeletal muscle; CapG and GS1 expressed in E. coli M15; species or system rabbit. As for the experimental part:
FIG. 4: (A) CapG: (a), Prodan-G-actin (100 nM), (b), Prodan-G-actin-CapG; (c), same as (b) in the presence of 0.2 μM KabC; (B); GS1: (a), Prodan-G-actin 100 nM; (b), Prodan-G-actin-GS1; (c), same as (b) in the presence of 0.2 μM KabC.
Characterization of actin binding proteins: The actin-binding properties of the ABPs used in this study are evaluated from changes in the fluorescence emission spectrum of Prodan-actin and actin polymerization assays as described by Marriott et al (1988).
Trisoxazolemacrolides specifically compete with GS1 for the (+)-end binding site on actin. Gelsolin, a monomeric 80 kD cytoskeleton protein composed of six domains interacts with actin filaments in a complex, Ca^2+-dependent manner (Janmey et al, 1985; Burtnick et al, 1997). Gelsolin exerts two major effects once bound to an actin filament: first it severs the filament and second it remains tightly bound to the severed (+)-end and serves to block, or cap, further growth. […] Structural analyses of G-actin complexes with GS1 (McLaughlin et al, 1993) and KabC show these unrelated molecules bind to G-actin through common contact sites that include a patch of hydrophobic residues on the surface between sub-domains 1 and 3 and within the cleft that forms between the interface of sub-domains 1 and 3 (McLaughlin et al, 1993;). GS1 binding to Prodan-G-actin shifts the average energy of the fluorescence emission to the red and is accompanied by a decrease in the quantum yield (FIG. 4A) but not to the extent seen in the KabC-G-actin complex (FIG. 2).
Trisoxazolemacrolides specifically compete with CapG for the (+)-end binding site on actin. CapG, a Ca^2+-dependent, (+)-end actin filament capping protein, is found at high levels in macrophage cells where it regulates membrane ruffling and cell protrusions associated with phagocytosis and motility (Botelho et. al., 2000). […] The Ca^2+-dependent binding of CapG to Prodan-G-actin is accompanied by a dramatic blue-shift in the emission spectrum and an increase in quantum yield (FIG. 4B, curve b). The difference in fluorescence emission spectra between free and CapG-bound Prodan-G-actin is used to quantify the parameters for this binding reaction. The G-actin-CapG complex exists as a 1:1 complex and has a dissociation constant of 100 nM (data not shown). […] This conclusion is consistent with a comparison of high-resolution structures of G-actin with GS1 and KabC and a preliminary analysis of a 2.8 Angstrom structure of a CapG mutant (Vorobiev et al, PDB database, 2002). […] However the emission properties of the CapG-Prodan-G-actin complex are unaffected by the binding of LatA, DNAse and thymosin β4 (Tβ4), which is consistent with some structural data showing that these sequestering molecules bind closer to the ATP pocket and DNAse binding loop (Kabsch et al, 1990).

Regarding Kabiramide C [KabC], the actin monomer sequestering entry on G-actin was “sequester actin monomers and raise the critical concentration for actin polymerization”. The “concentration at which cytotoxic effects are seen” value in the series on NBT-II cells is reported as more than 10 nM. Further, in the series with NBT-II cells, the “cytotoxic activity on NBT II epithelia cells” value is “concentration dependent cytotoxic activity”. For the same substance, the cell phenotype result was “fail to complete cytokinesis and are immotile” with NBT-II cells (10 nM, >12 hours); “the cells lose control of contractile functions and have enlarged vesicles” with NBT-II cells (100 nM); “complete breakdown of their actin cytoskeleton and die within a few hours” in the series on NBT-II cells (1 μM or higher); “an increase in the number of blebs, a breakdown in the adherens junction and a cytokinesis defect; also recorded: cytoskeleton-linked phenotypes” in the series with NBT-II cells (10˜100 nM). Also, the “time to cell death” value in the series on NBT-II cells (1000 nM) was 8˜12 hours. Further, at Prodan-G-actin, the “displacement of CapG from Prodan-G-actin” value is recorded as “displace CapG from Prodan-G-actin in a Ca^2+-independent manner”. For the same substance, the “stability of final G-actin-KabC complex” value at Prodan-G-actin (dilution and competition-binding studies) was “extremely stable and does not dissociate at a concentration below the equilibrium constant”. Also, on Prodan-G-actin (presence of EGTA), the “displacement of GS1 from Prodan-G-actin” value is “displaces GS1”.
